Measured values taken from US11951204B2, “Cell-penetrating peptides and composition including the same” (S-SKIN. CO., LTD., priority 2022, dated 2024).
Ends that are not written are not given here. * marks the point of attachment. FITC = O=C1OC2(c3ccc(O)cc3Oc3cc(O)ccc32)c2ccc(NC(=S)*)cc21; Ahx = NCCCCCC(=O)O

Assays:
Assay type in all cases: cell-based, human
HaCaT cells [1] = experiment: Cell penetration rate by flow cytometry; conditions: 10 μM, 37° C., 1 hour
Protocol: (§1) HaCaT cells were inoculated at a concentration of 3×10^5 cells/well into a 6-well plate and incubated for 24 hours. Then, the cell culture medium was removed, followed by washing twice with HBSS, and replaced with an Opti-MEM medium. The cells were treated with 10 μM FITC-TAT, FITC-Spep001, FITC-Spep002 or FITC-Spep003 and incubated at 37° C. with 5% CO2 for 1 hour. […] Finally, the cells were treated with 1 mg/mL trypsin and thus separated into single cells, followed by centrifugation at 1,000 rpm for 5 minutes. The FITC fluorescence intensities of cell-penetrating peptides per living 10,000 cells were measured by performing flow cytometry (Navios Flow Cytometer by Beckman Coulter Life Sciences), and the result thereof is shown in FIG. 5A(i) to FIG. 5A(v) and FIG. 5B.

HaCaT cells [2] = experiment: Cell penetration by confocal laser microscope; conditions: 10 μM, 24 hours, compared to positive control FITC-TAT
Protocol: HaCaT cells were inoculated at a concentration of 1.5×10^4 cells/well into an optical 96-well plate (M0562, Greiner) and incubated for 24 hours. Then, the medium was removed, followed by washing once with HBSS, and replaced with a serum-free medium. The cells were treated with 10 μM FITC-Spep001, FITC-Spep002 or FITC-Spep003 and then further incubated for 24 hours. Thereafter, the cells were washed four times with HBSS and treated with 10 μg/mL H33342 (bisBenzimide H33342 trihydrochloride (B2261, Sigma)) and then further incubated at room temperature for 5 minutes. Finally, the cells were washed three times with HBSS. The cell penetration rate was checked using a super resolution confocal laser microscope (LSM800), and the result thereof is shown in FIG. 4A(i) to FIG. 4F(iv). Herein, the cells were treated only FITC (F1906, Invitrogen™) as a negative control, and FITC-TAT was used as a positive control.

HaCaT cells [3] = experiment: Dependence of cell penetration on ATP (flow cytometry); conditions: pre-treated with 2-DG and NaN3
Protocol: as §1
A test was conducted in the same conditions as those in Example 7 except that the cells were pre-treated with 2-DG (2-deoxyglucose, D6134, sigma) and NaN3 (sodium azide, 71289, sigma) one hour before treatment with FITC-TAT, FITC-Spep001, FITC-Spep002 or FITC-Spep003 to check the dependence of endocytosis on ATP. Then, the FITC fluorescence intensities of peptides penetrating into living cells were measured by flow cytometry as in Example 5, and the result thereof is shown in FIG. 7.

Substance: FITC-Ahx-RLRLRQRRRR ({FITC-Ahx}-RLRLRQRRRR) [FITC-Spep001, Spep001 labelled with FITC at the N-terminal amine group]
- cell penetration rate (FITC-positive cell count) (HaCaT cells [1]): 36.3%
- cell penetration rate based on TAT-FITC with a cell penetration rate of 100% (HaCaT cells [1]): 133.95%
- amount penetrating into cells (fluorescent microscopic image) (HaCaT cells [2]): penetrates into cells in a greater amount than the positive control FITC-TAT
- FITC fluorescence intensity under ATP deficiency (HaCaT cells [3]): decreased
